Data: ChEMBL document CHEMBL1128883, “Synthesis and bioassay of a protein tyrosine phosphatase inhibitor, dephostatin” (Bioorg Med Chem Lett, 1995)

Key:
[1] = biological target: T1, Tyrosine-protein phosphatase non-receptor type 1 (Homo sapiens) (UniProt P18031); assay: The rate constant for the inactivation of mammalian Protein-tyrosine phosphatase 1 (PTP1 ) was evaluated
T1 sequence (whole entry): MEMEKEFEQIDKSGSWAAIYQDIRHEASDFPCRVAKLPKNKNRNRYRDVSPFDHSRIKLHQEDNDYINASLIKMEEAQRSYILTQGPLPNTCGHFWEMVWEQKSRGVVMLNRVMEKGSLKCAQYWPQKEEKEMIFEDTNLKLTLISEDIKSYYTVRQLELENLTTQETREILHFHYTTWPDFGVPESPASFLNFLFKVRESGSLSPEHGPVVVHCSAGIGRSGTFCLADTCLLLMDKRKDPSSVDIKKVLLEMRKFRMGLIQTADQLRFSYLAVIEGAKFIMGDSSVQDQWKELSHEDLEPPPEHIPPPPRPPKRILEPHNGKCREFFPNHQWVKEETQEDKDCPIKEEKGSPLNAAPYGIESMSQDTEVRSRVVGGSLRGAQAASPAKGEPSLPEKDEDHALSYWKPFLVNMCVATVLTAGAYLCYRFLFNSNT

[2] = biological target: T1, Tyrosine-protein phosphatase non-receptor type 1 (Homo sapiens); assay: Apparent pseudo-first-order rate constant of inactivation of Protein Tyrosine Phosphatase (PTP) was determined; value given as 1-25
[3] = biological target: T1, Tyrosine-protein phosphatase non-receptor type 1 (Homo sapiens); assay: Apparent pseudo-first-order rate constant of inactivation of Protein Tyrosine Phosphatase (PTP) was determined; value given as 0.5-2.8

CN(N=O)c1ccccc1
Rate constant [1]: 0.0167 M⁻¹ s⁻¹ | Rate constant [2]: 1 mM

CN(N=O)c1cc(O)ccc1O
Rate constant [3]: 0.5 mM | Rate constant [1]: 1.08 M⁻¹ s⁻¹
